Test [1] addresses T1, Neprilysin (Rattus norvegicus, UniProt P07861).
T1 sequence (P07861 whole entry): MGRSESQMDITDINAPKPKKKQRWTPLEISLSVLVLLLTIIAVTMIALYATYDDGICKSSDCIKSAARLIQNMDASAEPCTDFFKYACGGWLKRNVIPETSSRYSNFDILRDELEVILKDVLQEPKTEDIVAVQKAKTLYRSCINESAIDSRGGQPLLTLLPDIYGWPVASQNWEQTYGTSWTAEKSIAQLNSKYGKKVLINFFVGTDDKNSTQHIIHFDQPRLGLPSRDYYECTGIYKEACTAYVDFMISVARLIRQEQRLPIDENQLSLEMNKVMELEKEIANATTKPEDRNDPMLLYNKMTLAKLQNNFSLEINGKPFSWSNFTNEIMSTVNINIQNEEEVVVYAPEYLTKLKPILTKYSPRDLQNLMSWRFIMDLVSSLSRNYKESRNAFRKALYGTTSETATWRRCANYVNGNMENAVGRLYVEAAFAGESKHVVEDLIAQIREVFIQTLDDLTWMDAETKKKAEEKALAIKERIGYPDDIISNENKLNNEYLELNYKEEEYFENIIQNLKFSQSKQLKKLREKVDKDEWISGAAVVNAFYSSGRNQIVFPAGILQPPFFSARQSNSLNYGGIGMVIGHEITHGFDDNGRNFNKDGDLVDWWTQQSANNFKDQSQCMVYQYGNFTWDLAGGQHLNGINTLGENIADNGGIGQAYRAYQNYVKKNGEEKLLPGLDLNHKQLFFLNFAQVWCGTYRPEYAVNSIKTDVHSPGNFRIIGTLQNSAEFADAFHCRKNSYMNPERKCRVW
In words: In vitro inhibition of neutral endopeptidase from rat kidney.

Test [2] has as its target T1, Neprilysin. The test is described as follows: In vitro inhibitory activity against neutral endopeptidase (NEP) from rat kidney.

Broadly, the IC50 is the concentration that gives 50% inhibition. A higher IC50 goes with a need for much substance. As for `O=C(O)C(COc1ccccc1)C[C@@H](Cc1ccc(-c2ccccc2)cc1)C(=O)N1CCCC1C(=O)O` (stereo in doubt), the IC50 against Neprilysin [1] is greater than 1000 nM.
`O=C(O)CNC(=O)C(Cc1ccccc1)CC(COc1ccccc1)C(=O)O` (single isomer, unassigned; isomer A) came in with an IC50 on Neprilysin [1] greater than 1000 nM.
Still for that read-out and setting: under `O=C(O)CNC(=O)[C@H](Cc1ccc(-c2ccccc2)cc1)C[C@@H](COc1ccccc1)C(=O)O` stands 3.2 nM; under `COCCOCC(CC(Cc1ccccc1)C(=O)NCC(=O)O)C(=O)O` (single isomer, unassigned; isomer B), 945 nM.
As for `CCCC[C@H](C[C@H](Cc1ccc(-n2cccn2)cc1)C(=O)NCC(=O)O)C(=O)O`, inhibition against Neprilysin [1] was half-maximal at 366 nM (IC50).
Compound `O=C(O)CNC(=O)[C@H](Cc1ccc(-c2ccccc2)cc1)CC(COc1ccccc1)C(=O)O` (stereo not given in full) displayed an IC50 against Neprilysin [2] of 5.9 nM.
For the compound `C[C@@H](NC(=O)[C@H](Cc1ccc(-c2ccccc2)cc1)CC(COc1ccccc1)C(=O)O)C(=O)O` (stereo in doubt; form 1), 13 nM corresponded to half-maximal inhibition at Neprilysin [1] (IC50).
For `O=C(O)CNC(=O)[C@@H](C[C@H](COc1ccccc1)C(=O)O)Oc1ccc(-c2ccccc2)cc1`, the IC50 against Neprilysin [1] was greater than 1000 nM.
Turning to `O=C(O)CNC(=O)C(Cc1ccccc1)CC(COc1ccccc1)C(=O)O` (single isomer, unassigned; isomer B), on Neprilysin [1], the IC50 came out at 407 nM.
For `CC(NC(=O)[C@H](Cc1ccc(-c2ccccc2)cc1)CC(COc1ccccc1)C(=O)O)C(=O)O` (mixture of isomers), at Neprilysin [1], half-maximal inhibition (IC50) required 20 nM.
In turn, `O=C(O)CNC(=O)[C@H](Cc1ccc(-c2ccccc2)cc1)CC(COc1ccccc1)C(=O)O` (single isomer, unassigned; isomer A) gave an IC50 against Neprilysin [1] of 3.2 nM.
At Neprilysin [1], `CC(CC(Cc1ncc(-c2ccccc2)cn1)C(=O)NCC(=O)O)C(=O)O` (stereo not given) had an IC50 greater than 1000 nM.
Regarding `CSCCC(NC(=O)[C@H](Cc1ccc(-c2ccccc2)cc1)CC(COc1ccccc1)C(=O)O)C(=O)O` (mixture of isomers), on Neprilysin [1], the IC50 turned out to be 101 nM.
The compound `C[C@@H](NC(=O)[C@H](Cc1ccc(-c2ccccc2)cc1)CC(COc1ccccc1)C(=O)O)C(=O)O` (stereo in doubt; form 2) registered an IC50 on Neprilysin [1] of 8.7 nM.
The compound `O=C(O)C(COc1ccccc1)C[C@@H](Cc1ccc(-c2ccccc2)cc1)C(=O)N1CCCC1C(=O)O` (single isomer, unassigned; isomer B) displayed an IC50 against Neprilysin [1] greater than 1000 nM.
With `O=C(O)CNC(=O)[C@H](Cc1ccc(-c2ccccc2)cc1)C[C@H](COc1ccccc1)C(=O)O`, the midpoint of inhibition against Neprilysin [1], the IC50, lay at 5.9 nM.
In the case of `CC(NC(=O)[C@H](Cc1ccc(-c2ccccc2)cc1)CC(COc1ccccc1)C(=O)O)C(=O)O` (stereo in doubt), inhibition against Neprilysin [1] was half-maximal at 2.8 nM (IC50).
At Neprilysin [1], `COCCOCC(CC(Cc1ccccc1)C(=O)NCC(=O)O)C(=O)O` (single isomer, unassigned; isomer A) showed an IC50 greater than 1000 nM.
With `O=C(O)CC[C@@H](Cc1ccc(-c2ccccc2)cc1)C(=O)NCC(=O)O`, on Neprilysin [1], the midpoint of inhibition, the IC50, lay at 2.3 nM.
In turn, `CCC/C=C(/C[C@@H](Cc1ccc(-n2cccn2)cc1)C(=O)NCC(=O)O)C(=O)O` came in with an IC50 at Neprilysin [1] greater than 1000 nM.

The values above are taken from ChEMBL document CHEMBL1150980, “Potent inhibitors of neutral endopeptidase. 2-Biphenyl- methylglutaric acid amide derivatives” (Bioorg Med Chem Lett, 1996).
